Results on 21 molecules are retold here after patent US9963463B2, “Urea-substituted indanes as P38 map kinase inhibitors” (TORRENT PHARMACEUTICALS LIMITED, priority 2014, dated 2018).

The assay has as its target T1, purified recombinant human p38 alpha MAPK (Homo sapiens, UniProt Q16539).
T1 construct: purchased Millipore, USA
Description: Inhibition of p38 alpha MAPK activity, TR-FRET kinase assay. To be noted: Concentration 1 μM; for inhibition at 1 µM: read-out: P38α Inhibition. The format is biochemical. How it is done: Inhibition of p38 Alpha MAPK Activity: Time-Resolved Fluorescence Resonance Energy Transfer Kinase Standard Assay (TR-FRET Assay)
Compounds of present invention at various concentrations were premixed with DMSO. The experiment was initiated by mixing 0.5%-1.0% DMSO as vehicle/compounds with purified recombinant human p38 alpha MAPK (Millipore, USA) in the wells and 15 min incubation at room temperature. Thereafter, 30 nM of Biotinylated GST-ATF2 (Activation transcription Factor2) and 100 μM of ATP were added in to the wells containing reaction mixture, followed by reincubation for 60 minutes at RT. Reaction was terminated by addition of 10 mM of EDTA and detection reagent containing anti-phosphotheronine ATF2 antibody (PerkinElmer®, USA) labeled with europium chelate and APC (Allophycocyanin) labeled streptavidin, into the reaction mixture which was further incubated for 60 minutes at room temperature. The degree of phosphorylation of the substrate (GST-ATF2) was measured using Envision multimode reader (PerkinElmer®). Percentage inhibition of p38 kinase activity was calculated by determining ratio of specific europium 665 nm energy transfer signal to reference 615 nm signal.

T1 sequence (Q16539 whole entry): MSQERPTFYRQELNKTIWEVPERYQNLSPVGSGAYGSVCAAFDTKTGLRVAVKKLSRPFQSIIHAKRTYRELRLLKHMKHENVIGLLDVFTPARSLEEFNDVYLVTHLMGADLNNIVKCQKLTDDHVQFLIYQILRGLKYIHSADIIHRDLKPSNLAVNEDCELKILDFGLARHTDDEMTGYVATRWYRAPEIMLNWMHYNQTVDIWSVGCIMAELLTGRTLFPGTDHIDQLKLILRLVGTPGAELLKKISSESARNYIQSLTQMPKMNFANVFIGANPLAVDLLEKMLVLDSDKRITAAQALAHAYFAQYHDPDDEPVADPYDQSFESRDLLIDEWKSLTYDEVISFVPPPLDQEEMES

Take `CSc1ccccc1-c1nnc2n1CCN(C(=O)COc1ccc(NC(=O)Nc3cc(C(C)(C)C)nn3-c3ccc(C)cc3)c3c1CCC3)C2` [Compound 10, 1-[3-tert-butyl-1-(4-methylphenyl)-1H-pyrazol-5-yl]-3-[7-(2-{3-[2-(methylsulfanyl)phenyl]-5,6-dihydro[1,2,4]triazolo[4,3-a]pyrazin-7(8H)-yl}-2-oxoethoxy)-2,3-dihydro-1H-inden-4-yl]urea]: the inhibition at 1 µM was in the range of 80 to 100%.
Consider `CC(C)(C)c1cc(NC(=O)Nc2ccc(OCC(=O)N3CCn4c(nnc4-c4ccccc4SCCN4CCOCC4)C3)c3c2CCC3)n(-c2ccccc2)n1` [Compound 11, 1-(3-tert-butyl-1-phenyl-1H-pyrazol-5-yl)-3-(7-(2-[3-(2-{[2(morpholin-4-yl)ethyl]sulfanyl}phenyl)-5,6-dihydro[1,2,4]triazolo[4,3-a]pyrazin-7(8H)-yl]-2-oxoethoxy}-2,3-dihydro-1H-inden-4-yl)urea], for which the inhibition at 1 µM fell in the range of 80 to 100%.
As for `CSc1ccccc1-c1nnc2n1CCN(CCOc1ccc(NC(=O)Nc3cc(C(C)(C)C)nn3-c3ccc(C)cc3)c3c1CCC3)C2` [Compound 13, 1-[3-tert-butyl-1-(4-methylphenyl)-1H-pyrazol-5-yl]-3-[7-(2-{3-[2-(methylsulfanyl)phenyl]-5,6-dihydro[1,2,4]triazolo[4,3-a]pyrazin-7(8H)-yl}ethoxy)-2,3-dihydro-1H-inden-4-yl]urea], the inhibition at 1 µM fell in the range of 80 to 100%.
As to `COc1ccccc1-c1nnc2n1CCN(CCOc1ccc(NC(=O)Nc3cc(C(C)(C)C)nn3-c3ccc(C)cc3)c3c1CCC3)C2` [Compound 14, 1-[3-tert-butyl-1-(4-methylphenyl)-1H-pyrazol-5-yl]-3-(7-{2-[3-(2-methoxyphenyl)-5,6-dihydro[1,2,4]triazolo[4,3-a]pyrazin-7(8H)-yl]ethoxy}-2,3-dihydro-1H-inden-4-yl)urea], the inhibition at 1 µM fell in the range of 80 to 100%.
On the same count and under the same terms, the figure for `Cc1ccc(-n2nc(C(C)(C)C)cc2NC(=O)Nc2ccc(OCCN3CCn4c(nnc4-c4ccccc4O)C3)c3c2CCC3)cc1` [Compound 15, 1-[3-tert-butyl-1-(4-methylphenyl)-1H-pyrazol-5-yl]-3-(7-{2-[3-(2-hydroxyphenyl)-5,6-dihydro[1,2,4]triazolo[4,3-a]pyrazin-7(8H)-yl]ethoxy}-2,3-dihydro-1H-inden-4-yl)urea] is 80 to 100%.
On to `Cc1ccc(-n2nc(C(C)(C)C)cc2NC(=O)Nc2ccc(OCCN3CCN(Cc4ccccc4)C(=O)C3)c3c2CCC3)cc1` [Compound 16, 1-{7-[2-(4-benzyl-3-oxopiperazin-1-yl)ethoxy]-2,3-dihydro-1H-inden-4-yl}-3-[3-tert-butyl-1-(4-methylphenyl)-1H-pyrazol-5-yl]urea], for which the inhibition at 1 µM lay within 80 to 100%.
As for `COc1ccc(-n2nc(C(C)(C)C)cc2NC(=O)Nc2ccc(OCCN3CCN(CC4CC4)C(=O)C3)c3c2CCC3)cc1` [Compound 17, 1-[3-tert-butyl-1-(4-methoxyphenyl)-1H-pyrazol-5-yl]-3-(7-{2-[4-(cyclopropylmethyl)-3-oxopiperazin-1-yl]ethoxy}-2,3-dihydro-1H-inden-4-yl)urea], the inhibition at 1 µM lay in the range of 60 to 80%.
For `CC(C)(C)c1cc(NC(=O)Nc2ccc(OCCN3CCN(CC4CC4)C(=O)C3)c3c2CCC3)n(-c2ccc(O)cc2)n1` [Compound 18, 1-[3-tert-butyl-1-(4-hydroxyphenyl)-1H-pyrazol-5-yl]-3-(7-{2-[4-(cyclopropylmethyl)-3-oxopiperazin-1-yl]ethoxy}-2,3-dihydro-1H-inden-4-yl)urea], the inhibition at 1 µM is 80 to 100%.
Still for that read-out and setting: the figure for `Cc1ccc(-n2nc(C(C)(C)C)cc2NC(=O)Nc2ccc(OCCN3CCN(c4ccccc4)C(=O)C3)c3c2CCC3)cc1` [Compound 19, 1-[3-tert-butyl-1-(4-methylphenyl)-1H-pyrazol-5-yl]-3-{7-[2-(3-oxo-4-phenylpiperazin-1-yl)ethoxy]-2,3-dihydro-1H-inden-4-yl}urea] is 80 to 100%; for `Cc1ccc(-n2nc(C(C)(C)C)cc2NC(=O)Nc2ccc(OCCN3CCn4c(nnc4-c4ccccc4OCCN4CCOCC4)C3)c3c2CCC3)cc1` [Compound 20, 1-[3-tert-butyl-1-(4-methylphenyl)-1H-pyrazol-5-yl]-3-(7-{2-[3-{2-[2-(morpholin-4-yl)ethoxy]phenyl}-5,6-dihydro[1,2,4]triazolo[4,3-a]pyrazin-7(8H)-yl]ethoxy}-2,3-dihydro-1H-inden-4-yl)urea] it is 80 to 100%; for `Cc1ccc(-n2nc(C(C)(C)C)cc2NC(=O)Nc2ccc(OCCN3CCN(CC4CCCC4)C(=O)C3)c3c2CCC3)cc1` [Compound 21, 1-[3-tert-butyl-1-(4-methylphenyl)-1H-pyrazol-5-yl]-3-(7-{2-[4-(cyclopentylmethyl)-3-oxopiperazin-1-yl]ethoxy}-2,3-dihydro-1H-inden-4-yl)urea] it is 80 to 100%.
On the same count and under the same terms, to `Cc1ccc(-n2nc(C(C)(C)C)cc2NC(=O)Nc2ccc(OCCN3CCN(CC4CCC4)C(=O)C3)c3c2CCC3)cc1` [Compound 22, 1-[3-tert-butyl-1-(4-methylphenyl)-1H-pyrazol-5-yl]-3-(7-{2-[4-(cyclobutylmethyl)-3-oxopiperazin-1-yl]ethoxy}-2,3-dihydro-1H-inden-4-yl)urea] belongs 80 to 100%.
Turning to `CCc1ccc(-n2nc(C(C)(C)C)cc2NC(=O)Nc2ccc(OCCN3CCn4c(nnc4-c4ccccc4OC)C3)c3c2CCC3)cc1` [Compound 23, 1-[3-tert-butyl-1-(4-ethylphenyl)-1H-pyrazol-5-yl]-3-(7-{2-[3-(2-methoxyphenyl)-5,6-dihydro[1,2,4]triazolo[4,3-a]pyrazin-7(8H)-yl]ethoxy}-2,3-dihydro-1H-inden-4-yl)urea], the inhibition at 1 µM lay in the range of 80 to 100%.
Consider `CSc1ccccc1-c1nnc2n1CCN(CCOc1ccc(NC(=O)Nc3cc(C(C)(C)C)nn3-c3ccc(O)c(Cl)c3)c3c1CCC3)C2` [Compound 24, 1-[3-tert-butyl-1-(3-chloro-4-hydroxyphenyl)-1H-pyrazol-5-yl]-3-[7-(2-{3-[2-(methylsulfanyl)phenyl]-5,6-dihydro[1,2,4]triazolo[4,3-a]pyrazin-7(8H)-yl}ethoxy)-2,3-dihydro-1H-inden-4-yl]urea], for which the inhibition at 1 µM was in the range of 80 to 100%.
With `COc1ccccc1-c1nnc2n1CCN(CCOc1ccc(NC(=O)Nc3cc(C(C)(C)C)nn3-c3ccc(O)c(Cl)c3)c3c1CCC3)C2` [Compound 25, 1-[3-tert-buty1-1-(3-chloro-4-hydroxyphenyl)-1H-pyrazol-5-yl]-3-(7-{2-[3-(2-methoxyphenyl)-5,6-dihydro[1,2,4]triazolo[4,3-a]pyrazin-7(8H)-yl]ethoxy}-2,3-dihydro-1H-inden-4-yl)urea], the “P38α Inhibition” value is “+++++ (+++++ = Inhibition ≥80% ≥ 100%)”.
On to `CC(C)(C)c1cc(NC(=O)Nc2ccc(OCCN3CCn4c(nnc4-c4ccccc4O)C3)c3c2CCC3)n(-c2ccc(O)c(Cl)c2)n1` [Compound 26, 1-[3-tert-butyl-1-(3-chloro-4-hydroxyphenyl)-1H-pyrazol-5-yl]-3-(7-{2-[3-(2-hydroxyphenyl)-5,6-dihydro[1,2,4]triazolo[4,3-a]pyrazin-7(8H)-yl]ethoxy}-2,3-dihydro-1H-inden-4-yl)urea], for which the inhibition at 1 µM fell in the range of 80 to 100%.
Still for that read-out and setting: the figure for `CCCOc1ccccc1-c1nnc2n1CCN(CCOc1ccc(NC(=O)Nc3cc(C(C)(C)C)nn3-c3ccc(O)c(Cl)c3)c3c1CCC3)C2` [Compound 27, 1-[3-tert-butyl-1-(3-chloro-4-hydroxyphenyl)-1H-pyrazol-5-yl]-3-(7-{2-[3-(2-propoxyphenyl)-5,6-dihydro[1,2,4]triazolo[4,3-a]pyrazin-7(8H)-yl]ethoxy}-2,3-dihydro-1H-inden-4-yl)urea] is 80 to 100%; for `Cc1ccc(-n2nc(C(C)(C)C)cc2NC(=O)Nc2ccc(OCCCN3CCN(CC4CC4)C(=O)C3)c3c2CCC3)cc1` [Compound 28, 1-[3-tert-butyl-1-(4-methylphenyl)-1H-pyrazol-5-yl]-3-(7-{3-[4-(cyclopropylmethyl)-3-oxopiperazin-1-yl]propoxy}-2,3-dihydro-1H-inden-4-yl)urea] it is 80 to 100%; for `Cc1ccc(-n2nc(C(C)(C)C)cc2NC(=O)Nc2ccc(OCCN3CCn4c(nnc4-c4cccc(Cl)c4O)C3)c3c2CCC3)cc1` [Compound 29, 1-[3-tert-butyl-1-(4-methylphenyl)-1H-pyrazol-5-yl]-3-(7-{2-[3-(3-chloro-2-hydroxyphenyl)-5,6-dihydro[1,2,4]triazolo[4,3-a]pyrazin-7(8H)-yl]ethoxy}-2,3-dihydro-1H-inden-4-yl)urea] it is 80 to 100%.
For `Cc1ccc(-n2nc(C(C)(C)C)cc2NC(=O)Nc2ccc(OCCN3CCn4c(nnc4-c4ccccc4OCCO)C3)c3c2CCC3)cc1` [Compound 30, 1-[3-tert-butyl-1-(4-methylphenyl)-1H-pyrazol-5-yl]-3-[7-(2-{3-[2-(2-hydroxyethoxy)phenyl]-5,6-dihydro[1,2,4]triazolo[4,3-a]pyrazin-7(8H)-yl}ethoxy)-2,3-dihydro-1H-inden-4-yl]urea], the inhibition at 1 µM is 80 to 100%.
In the case of `Cc1ccc(-n2nc(C(C)(C)C)cc2NC(=O)Nc2ccc(OCCN3CCn4c(nnc4-c4ccc(O)c(Cl)c4)C3)c3c2CCC3)cc1` [Compound 31, 1-[3-tert-butyl-1-(4-methylphenyl)-1H-pyrazol-5-yl]-3-(7-{2-[3-(3-chloro-4-hydroxyphenyl)-5,6-dihydro[1,2,4]triazolo[4,3-a]pyrazin-7(8H)-yl]ethoxy}-2,3-dihydro-1H-inden-4-yl)urea], the inhibition at 1 µM lay in the range of 80 to 100%.
